The target in the experiment is T1, mouse TRPV3 (Mus musculus, UniProt Q8K424).
T1 construct: expressed in transfected cells; host or cells: HEK293
T1 sequence (Q8K424 1-791): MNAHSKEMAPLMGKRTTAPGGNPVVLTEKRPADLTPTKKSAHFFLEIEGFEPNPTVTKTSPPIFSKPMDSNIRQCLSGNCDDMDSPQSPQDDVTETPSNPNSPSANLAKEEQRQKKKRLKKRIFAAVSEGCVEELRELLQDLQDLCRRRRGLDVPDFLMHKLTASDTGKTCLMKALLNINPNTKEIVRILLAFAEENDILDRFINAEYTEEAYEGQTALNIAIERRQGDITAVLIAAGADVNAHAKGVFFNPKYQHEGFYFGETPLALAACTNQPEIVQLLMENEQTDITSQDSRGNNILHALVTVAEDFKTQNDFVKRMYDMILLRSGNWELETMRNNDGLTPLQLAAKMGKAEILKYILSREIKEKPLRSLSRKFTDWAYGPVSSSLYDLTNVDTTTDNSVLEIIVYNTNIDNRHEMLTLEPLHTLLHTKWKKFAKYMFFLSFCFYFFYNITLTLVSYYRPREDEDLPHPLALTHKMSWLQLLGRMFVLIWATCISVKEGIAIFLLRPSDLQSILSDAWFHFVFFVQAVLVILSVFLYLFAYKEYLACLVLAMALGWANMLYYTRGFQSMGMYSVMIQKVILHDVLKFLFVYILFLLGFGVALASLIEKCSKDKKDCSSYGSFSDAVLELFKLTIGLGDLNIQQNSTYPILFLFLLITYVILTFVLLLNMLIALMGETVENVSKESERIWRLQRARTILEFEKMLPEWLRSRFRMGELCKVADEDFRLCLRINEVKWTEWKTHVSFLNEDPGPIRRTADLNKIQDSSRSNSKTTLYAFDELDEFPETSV
Nature of the experiment: whole-cell patch-clamp recordings in HEKmTRPV3 cells. In kind it is cell-based. As for the experimental part: Whole-cell patch-clamp recordings were performed at room temperature using an […] amplifier connected to a Digidata 1440A digitizer under the control of the pCLAMP 10 software suite (Molecular Devices). Cells were plated onto PLL-coated glass coverslips 24–48 hours prior to recordings. […] The extracellular buffer consisted of 140 mM NaCl, 5 mM CsCl, 2 mM MgCl2, 1 mM CaCl2, and 10 mM HEPES, adjusted to pH 7.4 with NaOH. Recordings were performed with a liquid junction potential of +3.6 mV, which was not corrected. Voltage ramps ranging from −100 to 100 mV (500-millisecond duration) were applied at 1-second intervals. Series resistance was <15 MΩ and compensated by 70%. Only recordings with stable access resistance and minimal leak currents were included in the analysis. […]
Fig. 2 Electrophysiological analysis of AV3-1–activated TRPV3 currents in HEKmTRPV3 cells. […] Current amplitudes were recorded using voltage ramps from −100 mV to +100 mV (500-millisecond duration) such as in B and expressed as current density (pA/pF) measured at +100 mV and −100 mV. […] (C) Quantification of current densities (pA/pF) at −100 mV (inward current) and +100 mV (outward current) at the time points (1, 6–8) as indicated in (A). […] Statistical significance was determined using Kruskal-Wallis ANOVA followed by Conover test; ∗P < .05. […]
(The patch-clamp technique gives a direct electrical read-out from membranes.)

The source of these data is PMC12881674, “Activation of TRPV3 channels in bladder cancer cells stimulates ATP release” (Molecular Pharmacology, 2025).

For `COC(=O)C12CN(Cc3ccccc3)CC1(C(=O)OC)CN(Cc1ccccc1)C2` (centres unmarked) [AV3-1], under “5 μM AV3-1, voltage ramps -100 to +100 mV”, the “TRPV3 currents evoked by activator” value is “robust TRPV3-like currents”. For the same compound, the “reversibility of effect on TRPV3 upon washout” value (washout of 5 μM AV3-1) was “fully reversible”.
